Data reported in ChEMBL document CHEMBL1141850, “Glucosidation of betulinic acid by Cunninghamella species” (1999).
Converted amounts (≈) assume the structure as drawn.

What was measured:
Format in all cases: functional
Settings in all cases: read-out: ED50 (the source's name)
[1] = Cytotoxicity against human MEL7 cells
[2] = Cytotoxicity against human MEL3 cells
[3] = Cytotoxicity against human MEL1 cells
[4] = Cytotoxicity against human MEL2 cells

| SMILES | EC50 [1] | EC50 [2] | EC50 [3] | EC50 [4] |
| --- | --- | --- | --- | --- |
| C=C(C)[C@@H]1CC[C@]2(C(=O)O)CC[C@]3(C)[C@H](CC[C@@H]4[C@@]5(C)CC[C@H](O)C(C)(C)[C@@H]5CC[C@]43C)[C@@H]12 [BETULINIC ACID] | 4.4 µg/mL (≈ 9.63 µM) | 1.8 µg/mL (≈ 3.94 µM) | 1.4 µg/mL (≈ 3.07 µM) | 1.2 µg/mL (≈ 2.63 µM) |
| C=C(C)[C@@H]1CC[C@]2(C(=O)O[C@@H]3O[C@H](CO)[C@@H](O)[C@H](O)[C@H]3O)CC[C@]3(C)[C@H](CC[C@@H]4[C@@]5(C)CC[C@H](O)C(C)(C)[C@@H]5CC[C@]43C)[C@@H]12 | > 20 µg/mL | > 20 µg/mL | > 20 µg/mL | > 20 µg/mL |
